The values that follow come from ChEMBL document CHEMBL4715706, “Discovery of Benzotriazolo[4,3-d][1,4]diazepines as Orally Active Inhibitors of BET Bromodomains” (ACS Med Chem Lett, 2016).

Data set [1] can be described thus: Inhibition of BET in human THP-1 cells assessed as suppression of LPS-induced IL-6 release measured after 16 hrs by chemiluminescence ELISA. The data set is classed as cell-based. Conditions: THP-1, 16 h.
The nature of data set [2]: Intrinsic clearance in mouse liver microsomes.
Data set [3] can be described thus: Intrinsic clearance in rat liver microsomes.
A short description of data set [4]: Intrinsic clearance in dog liver microsomes.
Data set [5] can be described thus: Intrinsic clearance in human liver microsomes.
Data set [6] can be described thus: Protein binding in rat plasma. The format is ADME, cell-free. Conditions: read-out: PPB (converted).
Data set [7] is described as follows: Protein binding in human plasma. The data set is classed as ADME, cell-free. Conditions: read-out: PPB (converted).
Another data set deals with CREB-binding protein (Homo sapiens, UniProt Q92793). Put plainly: Inhibition of His-tagged CBP (unknown origin) using biotinylated acetylated peptide as substrate measured after 20 mins by AlphaLISA assay.
The next data set has as its target T1, Peregrin (Homo sapiens, UniProt P55201).
T1 sequence (P55201 whole entry): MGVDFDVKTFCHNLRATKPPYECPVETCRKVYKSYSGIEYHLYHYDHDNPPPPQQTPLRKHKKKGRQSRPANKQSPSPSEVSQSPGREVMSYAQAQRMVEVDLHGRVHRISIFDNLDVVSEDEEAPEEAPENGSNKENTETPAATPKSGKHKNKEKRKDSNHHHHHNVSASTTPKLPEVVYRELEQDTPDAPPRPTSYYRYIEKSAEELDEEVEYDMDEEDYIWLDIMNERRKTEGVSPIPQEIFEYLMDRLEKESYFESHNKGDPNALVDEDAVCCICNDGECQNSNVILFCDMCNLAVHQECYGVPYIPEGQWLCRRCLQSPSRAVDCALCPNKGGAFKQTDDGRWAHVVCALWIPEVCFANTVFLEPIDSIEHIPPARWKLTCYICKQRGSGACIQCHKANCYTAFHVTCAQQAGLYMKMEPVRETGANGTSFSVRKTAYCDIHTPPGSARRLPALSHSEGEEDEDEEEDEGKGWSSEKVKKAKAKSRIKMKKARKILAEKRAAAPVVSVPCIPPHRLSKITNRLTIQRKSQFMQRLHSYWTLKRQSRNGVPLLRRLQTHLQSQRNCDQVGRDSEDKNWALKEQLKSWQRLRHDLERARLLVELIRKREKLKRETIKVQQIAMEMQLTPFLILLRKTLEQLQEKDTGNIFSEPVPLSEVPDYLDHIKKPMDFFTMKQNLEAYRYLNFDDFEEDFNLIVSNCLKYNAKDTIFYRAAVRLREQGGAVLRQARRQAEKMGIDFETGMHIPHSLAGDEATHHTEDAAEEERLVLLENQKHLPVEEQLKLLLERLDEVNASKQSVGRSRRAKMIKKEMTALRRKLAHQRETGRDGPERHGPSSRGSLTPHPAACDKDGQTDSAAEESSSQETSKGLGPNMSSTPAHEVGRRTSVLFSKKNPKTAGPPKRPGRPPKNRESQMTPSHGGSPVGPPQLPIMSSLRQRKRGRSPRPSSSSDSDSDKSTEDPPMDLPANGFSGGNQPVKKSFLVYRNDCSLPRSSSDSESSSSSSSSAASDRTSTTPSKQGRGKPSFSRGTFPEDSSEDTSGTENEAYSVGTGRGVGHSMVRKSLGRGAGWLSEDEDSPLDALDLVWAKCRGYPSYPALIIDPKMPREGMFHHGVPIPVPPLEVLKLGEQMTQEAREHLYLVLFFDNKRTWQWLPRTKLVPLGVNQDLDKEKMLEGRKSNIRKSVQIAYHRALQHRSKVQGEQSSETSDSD
Kind of data set: Inhibition of BRPF1 (unknown origin) measured after 70 mins by TR-FRET assay.

Data set [8] has as its target T2, Bromodomain-containing protein 2 (Homo sapiens, UniProt P25440). Put plainly: Inhibition of BRD2 BD1 (unknown origin) using biotinylated JQ1 analog as substrate measured after 20 mins by AlphaLISA assay.
The target in data set [9] is T2, Bromodomain-containing protein 2. Kind of data set: Inhibition of BRD2 BD2 (unknown origin) using biotinylated JQ1 analog as substrate measured after 20 mins by AlphaLISA assay.
For data set [10], the target named is Bromodomain-containing protein 3 (Homo sapiens, UniProt Q15059). Kind of data set: Inhibition of BRD3 BD2 (unknown origin) using biotinylated JQ1 analog as substrate measured after 20 mins by AlphaLISA assay.
The target of data set [11] is Bromodomain testis-specific protein (Homo sapiens, UniProt Q58F21). Put plainly: Inhibition of BRDT BD2 (unknown origin) using biotinylated JQ1 analog as substrate measured after 20 mins by AlphaLISA assay.
The target in data set [12] is Nucleosome-remodeling factor subunit BPTF (Homo sapiens, UniProt Q12830). Put plainly: Inhibition of BPTF (unknown origin) measured after 70 mins by TR-FRET assay.
The nature of data set [13]: Clearance in rat at 1 mg/kg, iv. The format is ADME, organism-based. Conditions: in vivo.
Data set [14] can be described thus: Unbound clearance in rat at 1 mg/kg, iv. The format is ADME, organism-based. Conditions: in vivo.
Data set [15] in a line: Volume of distribution at steady state in rat at 1 mg/kg, iv. Conditions: in vivo, read-out: Vdss. The data set is classed as ADME, organism-based.
Data set [16] in a line: Half life in rat at 1 mg/kg, iv. The data set is classed as ADME, organism-based. Conditions: in vivo.
Data set [17] is described as follows: Cmax in rat at 10 mg/kg, po. The data set is classed as ADME, organism-based. On the set-up: route oral, dose 10 mg/kg. Conditions: in vivo.
Data set [18] in a line: Half life in rat at 10 mg/kg, po. The data set is classed as ADME, organism-based. Conditions: in vivo.
The nature of data set [19]: AUClast in rat at 10 mg/kg, po. The format is ADME, organism-based. More on the design: time 0 - last, route oral, dose 10 mg/kg. Conditions: in vivo.
The nature of data set [20]: Oral bioavailability in rat at 10 mg/kg. The format is ADME, organism-based. Conditions: in vivo.
The target of data set [21] is Bromodomain-containing protein 4 (Homo sapiens, UniProt O60885).
Description: Inhibition of His/FLAG-tagged BRD4 BD1 (unknown origin) using histone H4-TetraAcetylated-biotin peptide as substrate incubated for 20 mins by AlphaLISA assay

T2 sequence (P25440 whole entry): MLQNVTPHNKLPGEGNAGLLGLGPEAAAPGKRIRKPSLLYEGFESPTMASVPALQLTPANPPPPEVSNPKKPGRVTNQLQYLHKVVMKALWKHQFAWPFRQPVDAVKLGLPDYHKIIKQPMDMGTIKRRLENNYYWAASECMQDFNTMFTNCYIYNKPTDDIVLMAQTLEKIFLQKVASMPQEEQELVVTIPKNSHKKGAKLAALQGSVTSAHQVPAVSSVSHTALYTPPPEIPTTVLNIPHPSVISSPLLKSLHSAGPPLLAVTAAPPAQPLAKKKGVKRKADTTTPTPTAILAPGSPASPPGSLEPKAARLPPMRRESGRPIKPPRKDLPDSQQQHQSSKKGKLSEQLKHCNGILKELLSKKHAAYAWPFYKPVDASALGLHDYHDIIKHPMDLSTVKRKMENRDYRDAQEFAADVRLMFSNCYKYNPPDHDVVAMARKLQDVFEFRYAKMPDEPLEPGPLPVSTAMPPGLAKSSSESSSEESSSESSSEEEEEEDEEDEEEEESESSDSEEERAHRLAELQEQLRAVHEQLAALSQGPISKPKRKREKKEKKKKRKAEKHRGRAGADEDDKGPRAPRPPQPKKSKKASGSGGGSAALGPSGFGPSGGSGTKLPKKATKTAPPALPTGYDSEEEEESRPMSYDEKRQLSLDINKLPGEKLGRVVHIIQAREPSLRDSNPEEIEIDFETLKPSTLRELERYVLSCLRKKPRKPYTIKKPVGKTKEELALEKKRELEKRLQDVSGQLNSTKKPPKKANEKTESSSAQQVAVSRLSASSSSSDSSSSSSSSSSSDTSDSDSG
Sequence of CREB-binding protein (Q92793 whole entry): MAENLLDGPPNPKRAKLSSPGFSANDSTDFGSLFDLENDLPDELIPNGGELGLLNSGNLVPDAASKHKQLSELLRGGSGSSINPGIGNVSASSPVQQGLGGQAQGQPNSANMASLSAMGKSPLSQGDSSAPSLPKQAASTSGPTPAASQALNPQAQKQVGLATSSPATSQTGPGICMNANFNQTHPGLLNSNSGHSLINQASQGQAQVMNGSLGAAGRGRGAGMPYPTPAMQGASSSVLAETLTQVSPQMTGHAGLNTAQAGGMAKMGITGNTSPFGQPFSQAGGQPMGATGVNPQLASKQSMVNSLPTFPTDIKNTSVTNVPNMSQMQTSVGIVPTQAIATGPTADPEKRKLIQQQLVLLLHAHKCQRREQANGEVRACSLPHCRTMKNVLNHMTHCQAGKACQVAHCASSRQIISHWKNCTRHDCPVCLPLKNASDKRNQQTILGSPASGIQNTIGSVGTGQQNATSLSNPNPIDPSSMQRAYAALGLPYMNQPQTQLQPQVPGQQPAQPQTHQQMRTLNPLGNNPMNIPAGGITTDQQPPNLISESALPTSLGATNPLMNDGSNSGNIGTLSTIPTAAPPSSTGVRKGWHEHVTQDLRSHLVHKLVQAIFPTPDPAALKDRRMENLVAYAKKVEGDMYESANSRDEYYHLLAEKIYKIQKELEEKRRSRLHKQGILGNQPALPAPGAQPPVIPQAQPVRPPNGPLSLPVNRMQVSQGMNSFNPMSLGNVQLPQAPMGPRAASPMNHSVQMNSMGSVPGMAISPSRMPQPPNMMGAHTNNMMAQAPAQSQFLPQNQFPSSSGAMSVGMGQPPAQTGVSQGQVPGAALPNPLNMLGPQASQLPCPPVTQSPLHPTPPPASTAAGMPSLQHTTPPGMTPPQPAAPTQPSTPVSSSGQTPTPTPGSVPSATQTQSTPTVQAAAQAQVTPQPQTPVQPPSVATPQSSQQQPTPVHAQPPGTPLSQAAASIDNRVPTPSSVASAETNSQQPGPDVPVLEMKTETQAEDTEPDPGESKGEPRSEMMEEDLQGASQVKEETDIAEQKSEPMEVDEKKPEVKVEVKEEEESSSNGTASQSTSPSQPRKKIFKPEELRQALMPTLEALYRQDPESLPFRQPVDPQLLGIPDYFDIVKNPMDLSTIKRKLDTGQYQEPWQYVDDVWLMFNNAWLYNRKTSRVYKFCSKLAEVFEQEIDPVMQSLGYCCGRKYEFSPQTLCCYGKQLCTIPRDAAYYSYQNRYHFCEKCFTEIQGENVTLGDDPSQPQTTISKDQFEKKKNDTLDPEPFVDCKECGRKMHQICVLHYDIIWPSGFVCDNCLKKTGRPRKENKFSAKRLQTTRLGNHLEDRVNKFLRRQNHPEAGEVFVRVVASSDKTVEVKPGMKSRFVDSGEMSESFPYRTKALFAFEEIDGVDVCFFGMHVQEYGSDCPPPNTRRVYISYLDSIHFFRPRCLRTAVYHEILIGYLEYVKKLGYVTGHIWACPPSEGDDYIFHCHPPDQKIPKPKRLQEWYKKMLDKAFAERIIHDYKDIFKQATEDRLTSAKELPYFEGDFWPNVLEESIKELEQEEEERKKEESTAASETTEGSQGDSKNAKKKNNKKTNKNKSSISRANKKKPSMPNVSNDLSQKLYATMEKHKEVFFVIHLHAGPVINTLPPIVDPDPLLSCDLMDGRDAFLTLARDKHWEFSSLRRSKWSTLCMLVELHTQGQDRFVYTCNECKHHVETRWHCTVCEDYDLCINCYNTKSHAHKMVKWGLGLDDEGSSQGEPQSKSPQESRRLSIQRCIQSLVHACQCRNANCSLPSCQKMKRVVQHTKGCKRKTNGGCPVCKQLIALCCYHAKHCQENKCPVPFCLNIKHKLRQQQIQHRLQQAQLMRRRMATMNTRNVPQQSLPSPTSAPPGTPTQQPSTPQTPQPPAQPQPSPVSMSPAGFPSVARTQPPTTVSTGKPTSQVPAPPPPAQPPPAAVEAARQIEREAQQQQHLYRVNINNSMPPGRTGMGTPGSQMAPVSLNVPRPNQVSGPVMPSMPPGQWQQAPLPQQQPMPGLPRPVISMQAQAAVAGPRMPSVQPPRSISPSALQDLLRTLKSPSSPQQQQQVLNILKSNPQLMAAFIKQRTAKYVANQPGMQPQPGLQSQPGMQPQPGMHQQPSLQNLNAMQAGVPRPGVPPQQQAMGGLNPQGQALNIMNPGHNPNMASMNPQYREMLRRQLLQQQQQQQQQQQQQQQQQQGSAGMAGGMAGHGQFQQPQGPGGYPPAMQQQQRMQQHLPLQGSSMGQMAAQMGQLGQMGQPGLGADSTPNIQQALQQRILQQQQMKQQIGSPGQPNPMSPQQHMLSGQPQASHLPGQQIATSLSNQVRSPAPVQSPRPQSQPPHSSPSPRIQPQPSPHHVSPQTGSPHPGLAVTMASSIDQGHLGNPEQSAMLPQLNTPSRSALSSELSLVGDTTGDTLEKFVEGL
Sequence of Bromodomain-containing protein 3 (Q15059 whole entry): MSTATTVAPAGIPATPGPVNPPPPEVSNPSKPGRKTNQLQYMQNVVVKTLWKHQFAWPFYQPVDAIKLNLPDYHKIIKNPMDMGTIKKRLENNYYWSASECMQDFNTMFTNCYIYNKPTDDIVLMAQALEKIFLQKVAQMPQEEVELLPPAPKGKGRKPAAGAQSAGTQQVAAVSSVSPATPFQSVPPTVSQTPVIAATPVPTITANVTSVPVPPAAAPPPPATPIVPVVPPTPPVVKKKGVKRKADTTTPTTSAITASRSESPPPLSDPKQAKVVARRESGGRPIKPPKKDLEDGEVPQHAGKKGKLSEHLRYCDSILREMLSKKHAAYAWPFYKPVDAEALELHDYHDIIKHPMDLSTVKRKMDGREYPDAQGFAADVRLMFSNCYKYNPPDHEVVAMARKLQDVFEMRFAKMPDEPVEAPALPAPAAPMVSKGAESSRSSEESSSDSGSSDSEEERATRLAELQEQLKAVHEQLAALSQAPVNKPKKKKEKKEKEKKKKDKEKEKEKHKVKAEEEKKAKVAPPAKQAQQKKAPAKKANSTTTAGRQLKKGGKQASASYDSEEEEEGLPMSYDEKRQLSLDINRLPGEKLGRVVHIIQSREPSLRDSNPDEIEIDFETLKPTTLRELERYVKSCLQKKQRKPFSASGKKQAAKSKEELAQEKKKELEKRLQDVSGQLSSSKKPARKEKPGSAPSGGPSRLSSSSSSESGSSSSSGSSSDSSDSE

Take `Cc1nnc2n1-c1ccc(-c3ccc(N)nc3)cc1N(c1ccc(Cl)cc1)C[C@H]2C`: in data set [1], the EC50 turned out to be 13 nM. Further, the intrinsic metabolic clearance (microsomal CLint) in data set [2] was determined as 16 µL/min/mg; in data set [3], 26 µL/min/mg; in [4], 19 µL/min/mg; in data set [5], 5.1 µL/min/mg. Besides, the fraction unbound in data set [6] is 0.04; in data set [7] it was 0.02. Besides, the IC50 on CREB-binding protein was 2200 nM; against Peregrin, greater than 15000 nM; in data set [8], 3 nM; in data set [9], 3 nM; in data set [10], 3 nM; in data set [11] it was 3 nM. The half-maximal inhibitory concentration (IC50) in data set [12] is greater than 15000 nM; in [21], 15 nM. The clearance in data set [13] was 63.3 mL/min/kg. This compound also registered a CL free in data set [14] of 1580 mL/min/kg. The Vd in [15] was determined as 2.2 L/kg. For the same compound, the half-life in data set [16] was 0.67 h; in data set [18] it was 1.8 h. The compound also displayed a Cmax in [17] of 290 nM. For the same compound, the AUC(0-t) in data set [19] amounted to 1.4 µM·h. Moreover, the bioavailability in data set [20] turned out to be 23%.
